Assay results taken from publication PMC6585443 (ACS infectious diseases, 2018).
≈ marks a conversion by molar mass, not a printed value.

What was measured:
[1] = test system: human kinases involved in cellular proliferation; conditions: cited from earlier work
[2] = aqueous solubility pH 7.4; format: physicochemical
[3] = test system: P. falciparum W2; experiment: P. falciparum W2 antimalarial activity; format: cell-based, Plasmodium falciparum; conditions: less potent against W2 (CQ resistant) than D6
[4] = test system: P. berghei; experiment: modified Thompson in vivo infection model; conditions: mice, intraperitoneal 160 mg/kg/day × 3 days; for parasitemia: days 3 to 5 post-infection
[5] = test system: P. falciparum D6; experiment: P. falciparum D6 antimalarial activity; format: cell-based, Plasmodium falciparum; conditions: D6 strain
[6] = test system: P. falciparum C235; experiment: P. falciparum C235 antimalarial activity; format: cell-based, Plasmodium falciparum; conditions: less potent against C235 (CQ, MQ, pyrimethamine resistant) than D6
[7] = rat hepatocyte intrinsic clearance; format: in vitro ADME; conditions: rat hepatocytes
[8] = target: T1, Aurora A (Homo sapiens, UniProt O14965); experiment: human kinase panel at 5 μM; format: biochemical; conditions: test concentration 5 μM
T1 sequence (O14965 1-403): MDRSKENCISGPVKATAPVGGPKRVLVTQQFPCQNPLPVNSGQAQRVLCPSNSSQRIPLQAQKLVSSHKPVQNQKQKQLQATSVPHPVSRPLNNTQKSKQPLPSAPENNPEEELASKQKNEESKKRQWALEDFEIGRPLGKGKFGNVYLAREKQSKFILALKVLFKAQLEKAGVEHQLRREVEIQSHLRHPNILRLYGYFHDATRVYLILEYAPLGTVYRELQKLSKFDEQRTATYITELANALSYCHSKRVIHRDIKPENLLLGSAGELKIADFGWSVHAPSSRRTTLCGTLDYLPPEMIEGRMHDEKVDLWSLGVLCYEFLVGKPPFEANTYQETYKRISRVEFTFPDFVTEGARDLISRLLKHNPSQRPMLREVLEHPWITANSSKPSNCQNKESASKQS

[9] = target: MNK2 (Homo sapiens, UniProt Q9HBH9); experiment: human kinase panel at 5 μM; format: biochemical; conditions: test concentration 5 μM
[10] = target: MAP4K4 (Homo sapiens, UniProt O95819); experiment: human kinase panel at 5 μM; format: biochemical; conditions: test concentration 5 μM
[11] = target: EGFR (Homo sapiens, UniProt P00533); experiment: human kinase panel at 5 μM; format: biochemical; conditions: test concentration 5 μM
[12] = target: Abl (Homo sapiens, UniProt P00519); experiment: human kinase panel at 5 μM; format: biochemical; conditions: test concentration 5 μM
[13] = target: KDR (Homo sapiens, UniProt P35968); experiment: human kinase panel at 5 μM; format: biochemical; conditions: test concentration 5 μM
[14] = test system: panel of human kinases; experiment: human kinase panel at 5 μM; format: biochemical; conditions: test concentration 5 μM
[15] = human liver microsome intrinsic clearance; format: in vitro ADME; conditions: liver microsomes
[16] = LogD7.4; format: physicochemical; conditions: pH 7.4
[17] = aqueous solution at pH 7.4, pH 7.4, aqueous buffer

Sequence of Abl (P00519 whole entry): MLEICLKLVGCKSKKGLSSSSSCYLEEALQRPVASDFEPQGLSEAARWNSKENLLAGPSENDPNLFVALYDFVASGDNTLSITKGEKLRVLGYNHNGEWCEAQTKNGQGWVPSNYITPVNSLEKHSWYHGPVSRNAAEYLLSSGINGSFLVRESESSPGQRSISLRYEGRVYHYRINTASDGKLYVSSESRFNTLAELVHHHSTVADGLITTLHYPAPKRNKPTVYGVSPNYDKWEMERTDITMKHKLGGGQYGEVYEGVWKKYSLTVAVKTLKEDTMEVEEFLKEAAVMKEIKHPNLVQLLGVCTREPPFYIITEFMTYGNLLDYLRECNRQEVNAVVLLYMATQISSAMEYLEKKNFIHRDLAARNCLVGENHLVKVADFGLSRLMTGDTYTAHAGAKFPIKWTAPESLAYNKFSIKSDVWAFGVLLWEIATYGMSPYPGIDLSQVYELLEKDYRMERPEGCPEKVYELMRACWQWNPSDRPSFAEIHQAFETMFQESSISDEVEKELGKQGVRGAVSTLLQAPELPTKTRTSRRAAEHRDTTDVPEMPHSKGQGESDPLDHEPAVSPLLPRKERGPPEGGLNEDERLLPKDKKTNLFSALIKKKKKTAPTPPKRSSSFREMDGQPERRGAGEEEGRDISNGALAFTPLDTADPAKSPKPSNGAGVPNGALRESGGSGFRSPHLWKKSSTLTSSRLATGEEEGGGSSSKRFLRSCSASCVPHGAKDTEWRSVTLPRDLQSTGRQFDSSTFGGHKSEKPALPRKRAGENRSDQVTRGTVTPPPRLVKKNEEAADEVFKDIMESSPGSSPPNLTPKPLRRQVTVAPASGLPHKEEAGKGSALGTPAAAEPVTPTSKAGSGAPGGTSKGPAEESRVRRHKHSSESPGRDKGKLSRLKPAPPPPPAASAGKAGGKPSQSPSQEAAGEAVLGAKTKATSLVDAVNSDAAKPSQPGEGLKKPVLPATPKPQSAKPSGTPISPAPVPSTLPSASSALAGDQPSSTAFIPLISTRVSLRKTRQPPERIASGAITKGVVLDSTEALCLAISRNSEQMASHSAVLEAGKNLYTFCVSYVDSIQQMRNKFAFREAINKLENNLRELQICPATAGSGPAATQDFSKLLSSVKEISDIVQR
Sequence of EGFR (P00533 25-1210): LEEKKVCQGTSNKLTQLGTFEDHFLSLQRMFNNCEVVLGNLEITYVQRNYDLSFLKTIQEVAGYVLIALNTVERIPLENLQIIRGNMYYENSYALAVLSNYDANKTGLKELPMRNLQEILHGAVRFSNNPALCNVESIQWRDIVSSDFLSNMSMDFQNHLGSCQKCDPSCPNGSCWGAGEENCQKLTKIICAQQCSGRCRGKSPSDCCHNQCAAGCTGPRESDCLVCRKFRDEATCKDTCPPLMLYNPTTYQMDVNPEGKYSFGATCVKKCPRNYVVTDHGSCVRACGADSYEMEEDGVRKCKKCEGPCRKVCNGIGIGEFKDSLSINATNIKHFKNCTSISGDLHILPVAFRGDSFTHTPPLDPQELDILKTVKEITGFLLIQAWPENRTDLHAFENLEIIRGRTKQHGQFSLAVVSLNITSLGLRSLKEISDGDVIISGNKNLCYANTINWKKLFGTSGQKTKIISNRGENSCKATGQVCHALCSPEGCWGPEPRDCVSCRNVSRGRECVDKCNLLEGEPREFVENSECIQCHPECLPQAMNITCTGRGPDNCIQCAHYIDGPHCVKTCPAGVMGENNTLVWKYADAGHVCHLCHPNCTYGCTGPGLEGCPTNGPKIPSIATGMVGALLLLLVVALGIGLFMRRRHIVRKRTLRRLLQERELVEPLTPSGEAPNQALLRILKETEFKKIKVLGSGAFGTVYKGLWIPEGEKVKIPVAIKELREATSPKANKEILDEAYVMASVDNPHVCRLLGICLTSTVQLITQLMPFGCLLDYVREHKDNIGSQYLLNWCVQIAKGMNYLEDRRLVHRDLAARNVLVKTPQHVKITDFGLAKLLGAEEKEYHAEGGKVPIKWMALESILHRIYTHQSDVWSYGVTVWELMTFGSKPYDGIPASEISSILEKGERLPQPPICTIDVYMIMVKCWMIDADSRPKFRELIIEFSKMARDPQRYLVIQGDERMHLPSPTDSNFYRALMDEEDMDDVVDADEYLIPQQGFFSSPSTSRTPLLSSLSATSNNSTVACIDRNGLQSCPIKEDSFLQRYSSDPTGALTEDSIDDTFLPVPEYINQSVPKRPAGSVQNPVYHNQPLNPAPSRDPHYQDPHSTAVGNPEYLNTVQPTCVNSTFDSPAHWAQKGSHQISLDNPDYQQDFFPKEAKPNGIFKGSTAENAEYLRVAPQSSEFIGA
Sequence of MAP4K4 (O95819 whole entry): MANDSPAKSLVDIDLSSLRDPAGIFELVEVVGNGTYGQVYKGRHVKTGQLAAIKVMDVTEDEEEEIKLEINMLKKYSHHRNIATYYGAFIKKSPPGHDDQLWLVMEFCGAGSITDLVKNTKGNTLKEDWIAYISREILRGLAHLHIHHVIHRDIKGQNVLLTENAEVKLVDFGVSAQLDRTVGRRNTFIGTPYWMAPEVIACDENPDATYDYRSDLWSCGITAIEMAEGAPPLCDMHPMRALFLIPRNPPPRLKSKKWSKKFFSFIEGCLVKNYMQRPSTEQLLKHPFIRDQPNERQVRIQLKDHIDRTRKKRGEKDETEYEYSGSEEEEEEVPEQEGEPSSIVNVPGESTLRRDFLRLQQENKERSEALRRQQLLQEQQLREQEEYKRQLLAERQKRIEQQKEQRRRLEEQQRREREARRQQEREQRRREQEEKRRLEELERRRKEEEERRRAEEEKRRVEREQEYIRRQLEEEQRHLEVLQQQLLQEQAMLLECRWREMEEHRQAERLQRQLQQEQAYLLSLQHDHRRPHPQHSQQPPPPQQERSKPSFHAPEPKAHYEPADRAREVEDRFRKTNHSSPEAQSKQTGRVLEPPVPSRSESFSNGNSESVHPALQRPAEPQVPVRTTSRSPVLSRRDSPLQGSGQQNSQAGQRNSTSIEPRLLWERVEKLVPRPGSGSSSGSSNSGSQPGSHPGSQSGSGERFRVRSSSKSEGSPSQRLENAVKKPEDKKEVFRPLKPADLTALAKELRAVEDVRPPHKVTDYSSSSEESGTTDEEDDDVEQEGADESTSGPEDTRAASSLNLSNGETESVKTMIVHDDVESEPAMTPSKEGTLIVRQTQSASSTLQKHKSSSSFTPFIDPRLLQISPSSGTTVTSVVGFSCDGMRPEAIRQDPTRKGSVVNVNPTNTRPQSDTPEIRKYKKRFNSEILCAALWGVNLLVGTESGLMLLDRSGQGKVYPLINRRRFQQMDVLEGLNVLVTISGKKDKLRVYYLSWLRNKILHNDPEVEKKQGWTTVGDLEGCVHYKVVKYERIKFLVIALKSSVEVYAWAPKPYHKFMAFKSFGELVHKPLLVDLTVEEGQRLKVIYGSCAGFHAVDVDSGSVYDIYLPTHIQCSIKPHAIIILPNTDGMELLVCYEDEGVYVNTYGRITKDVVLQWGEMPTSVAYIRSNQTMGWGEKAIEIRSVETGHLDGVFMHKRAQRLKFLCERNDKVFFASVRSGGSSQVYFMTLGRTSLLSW
Sequence of MNK2 (Q9HBH9 whole entry): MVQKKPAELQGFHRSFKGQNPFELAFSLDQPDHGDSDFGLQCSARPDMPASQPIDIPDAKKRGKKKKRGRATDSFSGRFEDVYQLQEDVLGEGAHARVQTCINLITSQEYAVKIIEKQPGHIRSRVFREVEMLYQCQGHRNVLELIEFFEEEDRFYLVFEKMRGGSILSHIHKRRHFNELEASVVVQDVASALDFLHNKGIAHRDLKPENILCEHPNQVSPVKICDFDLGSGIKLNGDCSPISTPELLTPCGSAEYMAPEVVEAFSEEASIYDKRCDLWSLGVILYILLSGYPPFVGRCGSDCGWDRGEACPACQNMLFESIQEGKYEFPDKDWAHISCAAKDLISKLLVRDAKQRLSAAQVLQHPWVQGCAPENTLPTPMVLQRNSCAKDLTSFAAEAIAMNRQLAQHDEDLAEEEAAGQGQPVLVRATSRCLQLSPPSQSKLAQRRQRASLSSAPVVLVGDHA

CS(=O)(=O)CCNCc1ccc(-c2ccc3ncnc(Nc4ccc(OCc5cccc(F)c5)c(Cl)c4)c3c2)o1 [Compound 1, lapatinib]
selectivity versus numerous human kinases [1]: > 300 fold

COc1ccc(Nc2ccnc3cc(-c4ccc(S(=O)(=O)N5CCN(C)CC5)cc4)ccc23)cc1Cl [Compound 7, N-(3-Chloro-4-methoxyphenyl)-7-{4-[(4-methylpiperazin-1-yl)sulfonyl]phenyl}quinolin-4-amine]
solubility ([2]; aqueous medium, pH 7.4, aqueous buffer): 100 µM (≈ 52.3 µg/mL) | activity against W2 strain relative to D6 (fold) [3]: > 3 fold | life extension compared to the control group [4]: 5 days | parasitemia [4]: reduction in parasitemia

Cc1ccc(Nc2ccnc3cc(-c4ccc(S(=O)(=O)N5CCN(C)CC5)cc4)ccc23)cc1Cl [Compound 11, N-(3-Chloro-4-methylphenyl)-7-{4-[(4-methylpiperazin-1-yl)sulfonyl]phenyl}quinolin-4-amine]
activity against W2 strain relative to D6 (fold) [3]: > 3 fold

CN1CCN(S(=O)(=O)c2ccc(-c3ccc4c(Nc5cccnc5)ccnc4c3)cc2)CC1 [Compound 12, 7-{4-[(4-Methylpiperazin-1-yl)sulfonyl]phenyl}-N-(pyridin-3-yl)quinolin-4-amine]
reduction in potency compared to 3 [5]: 10 fold

CN1CCN(S(=O)(=O)c2ccc(-c3ccc4c(Nc5cnccn5)ccnc4c3)cc2)CC1 [Compound 14, 7-{4-[(4-Methylpiperazin-1-yl)sulfonyl]phenyl}-N-(pyrazin-2-yl)quinolin-4-amine]
activity against W2 strain relative to D6 (fold) [3]: > 3 fold

CN1CCN(S(=O)(=O)c2ccc(-c3ccc4c(Nc5cnc(C#N)cn5)ccnc4c3)cc2)CC1 [Compound 19, 5-[(7-{4-[(4-Methylpiperazin-1-yl)sulfonyl]phenyl}quinolin-4-yl)amino]pyrazine-2-carbonitrile]
activity against W2 strain relative to D6 (fold) [3]: > 3 fold

CN1CCN(S(=O)(=O)c2ccc(-c3ccc4c(Nc5ncc(Cl)cn5)ccnc4c3)cc2)CC1 [Compound 21, N-(5-Chloropyrimidin-2-yl)-7-{4-[(4-methylpiperazin-1-yl)sulfonyl]phenyl}quinolin-4-amine]
activity against W2 strain relative to D6 (fold) [3]: > 3 fold | activity against C235 strain relative to D6 (fold) [6]: > 3 fold

Cc1nnc(Nc2ccnc3cc(-c4ccc(S(=O)(=O)N5CCN(C)CC5)cc4)ccc23)nc1C [Compound 23, N-(Dimethyl-1,2,4-triazin-3-yl)-7-{4-[(4-methylpiperazin-1-yl)sulfonyl]phenyl}quinolin-4-amine]
activity against W2 strain relative to D6 (fold) [3]: > 3 fold

Cc1cc(Nc2ccnc3cc(-c4ccc(S(=O)(=O)N5CCN(C)CC5)cc4)ccc23)sn1 [Compound 24, N-(3-Methyl-1,2-thiazol-5-yl)-7-{4-[(4-methylpiperazin-1-yl)sulfonyl]phenyl}quinolin-4-amine]
activity against W2 strain relative to D6 (fold) [3]: > 3 fold

CN1CCN(c2nsnc2-c2ccc3c(Nc4ccc(OCc5cccc(F)c5)c(Cl)c4)ccnc3c2)CC1 [Compound 30, N-(3-Chloro-4-((3-fluorobenzyl)oxy)phenyl)-7-(4-(4-methylpiperazin-1-yl)-1,2,5-thiadiazol-3-yl)quinolin-4-amine]
reduction in potency compared to 3 [5]: six-fold reduction in potency

CC(C)(C)OC(=O)Nc1ccc2c(Nc3ccc(OCc4cccc(F)c4)c(Cl)c3)ccnc2c1 [Compound 36, Tert-butyl (4-((3-Chloro-4-((3-fluorobenzyl)oxy)phenyl)amino)quinolin-7-yl)carbamate]
reduction in potency compared to 3 [5]: almost three-fold drop in potency | activity against W2 strain relative to D6 (fold) [3]: > 3 fold

CN1CCN(c2ncc(-c3ccc4c(Nc5cnccn5)ccnc4c3)cn2)CC1 [Compound 40, 7-(2-(4-Methylpiperazin-1-yl)pyrimidin-5-yl)-N-(pyrazin-2-yl)quinolin-4-amine]
Rat Hepatocyte CLint [7]: 130 μL/min/10^6 | inhibition of Aurora A [8]: significant inhibition | inhibition of MNK2 [9]: significant inhibition | inhibition of MAP4K4 [10]: significant inhibition | inhibition of EGFR [11]: significant inhibition | inhibition of Abl [12]: significant inhibition | inhibition of KDR [13]: significant inhibition | number of kinases with insignificant inhibition [14]: 28 kinases | number of kinases with moderate to weak inhibition [14]: 10 kinases | parasitemia [4]: reduction in parasitemia

COc1ccc(Nc2ccnc3cc(-c4cnc(N5CCN(C)CC5)nc4)ccc23)cc1Cl [Compound 41, N-(3-Chloro-4-methoxyphenyl)-7-(2-(4-methylpiperazin-1-yl)pyrimidin-5-yl)quinolin-4-amine]
solubility [2, 17]: < 1 µM | Rat Hepatocyte CLint [7]: 45 μL/min/10^6

CN1CCN(c2ncc(-c3ccc4c(Nc5ccc6[nH]nnc6c5)ccnc4c3)cn2)CC1 [Compound 42, N-(1H-Benzo[d][1,2,3]triazol-5-yl)-7-(2-(4-methylpiperazin-1-yl)pyrimidin-5-yl)quinolin-4-amine]
solubility [2, 17]: < 1 µM | microsomal CLint [15]: 120 µL/min/mg | Rat Hepatocyte CLint [7]: 51 μL/min/10^6 | logD [16]: 3.3

c1cnc(Nc2ccnc3cc(-c4cn[nH]c4)ccc23)cn1 [Compound 43, N-(Pyrazin-2-yl)-7-(1H-pyrazol-4-yl)quinolin-4-amine]
solubility [2, 17]: 1 µM (≈ 0.288 µg/mL) | microsomal CLint [15]: 130 µL/min/mg | Rat Hepatocyte CLint [7]: 5.0 μL/min/10^6 | logD [16]: 2.6

COc1ccc(Nc2ccnc3cc(-c4cn[nH]c4)ccc23)cc1Cl [Compound 44, N-(3-Chloro-4-methoxyphenyl)-7-(1H-pyrazol-4-yl)quinolin-4-amine]
solubility [2, 17]: 2 µM (≈ 0.702 µg/mL) | microsomal CLint [15]: 8 µL/min/mg | Rat Hepatocyte CLint [7]: 5.0 μL/min/10^6 | logD [16]: 3.5

CN1CCN(c2ccc(Nc3ccc4c(Nc5cnccn5)ccnc4c3)cc2)CC1 [Compound 45, N^7-(4-(4-Methylpiperazin-1-yl)phenyl)-N^4-(pyrazin-2-yl)quinoline-4,7-diamine]
Rat Hepatocyte CLint [7]: 10 μL/min/10^6 | logD [16]: 2.2

CN1CCN(c2ccnc(Nc3ccc4c(Nc5cnccn5)ccnc4c3)n2)CC1 [Compound 46, N^7-(4-(4-Methylpiperazin-1-yl)pyrimidin-2-yl)-N^4-(pyrazin-2-yl)quinoline-4,7-diamine]
Rat Hepatocyte CLint [7]: 9.3 μL/min/10^6 | logD [16]: 2.8

COc1ccc(Nc2ccnc3cc(Nc4nccc(N5CCN(C)CC5)n4)ccc23)cc1Cl [Compound 47, N^4-(3-Chloro-4-methoxyphenyl)-N^7-(4-(4-methylpiperazin-1-yl)pyrimidin-2-yl)quinoline-4,7-diamine]
solubility [2, 17]: 570 µM (≈ 271 µg/mL) | Rat Hepatocyte CLint [7]: 7.2 μL/min/10^6 | logD [16]: 3.3

CN1CCN(c2nccc(Nc3ccc4c(Nc5cnccn5)ccnc4c3)n2)CC1 [Compound 48, N^7-(2-(4-Methylpiperazin-1-yl)pyrimidin-4-yl)-N^4-(pyrazin-2-yl)quinoline-4,7-diamine]
logD [16]: 2.9

COc1ccc(Nc2ccnc3cc(Nc4ccnc(N5CCN(C)CC5)n4)ccc23)cc1Cl [Compound 49, N^4-(3-Chloro-4-methoxyphenyl)-N^7-(2-(4-methylpiperazin-1-yl)pyrimidin-4-yl)quinoline-4,7-diamine]
microsomal CLint [15]: 45 µL/min/mg | Rat Hepatocyte CLint [7]: 2.3 μL/min/10^6
